Test: xn = mol fraction of the nth substance listed
Details: Liquid, Vibrating tube method

CC1=CC[C@H]2C[C@@H]1C2(C)C [(S)-2-pinene] + C=C1CCC2CC1C2(C)C
mass density [kg/m3]
Details	x1 = 0.1044	x1 = 0.1926	x1 = 0.3036	x1 = 0.3949	x1 = 0.502	x1 = 0.6052	x1 = 0.7022	x1 = 0.7983	x1 = 0.9028	x1 = 1
283.15 K, 20000 kPa	890.1	889	887.9	886.9	885.7	884.7	883.4	882.3	881.1	880
283.15 K, 25000 kPa	893.1	891.9	890.9	889.9	888.7	887.8	886.6	885.4	884.3	883.2
283.15 K, 30000 kPa	896	894.8	893.7	892.9	891.6	890.7	889.3	888.5	887.4	886.3
283.15 K, 35000 kPa	898.9	897.7	896.7	895.8	894.7	893.7	892.5	891.6	890.3	889.4
283.15 K, 40000 kPa	901.7	900.6	899.4	898.6	897.5	896.6	895.3	894.6	893.5	892.5
298.15 K, 20000 kPa	879.6	878.2	876.9	875.8	874.6	873.4	872.3	871.2	870	868.8
298.15 K, 25000 kPa	882.5	881.3	880	879	877.8	876.7	875.6	874.5	873.3	872.1
298.15 K, 30000 kPa	885.3	884.2	883	882	880.8	–	–	–	–	–
